According to ChEMBL document CHEMBL3421552, “Penicitols A-C and penixanacid A from the mangrove-derived Penicillium chrysogenum HDN11-24” (J Nat Prod, 2015):

Experiments:
[1] = Cytotoxic activity against human Bel7402 cells by MTT method; conditions: Bel-7402
HeLa = assay: Cytotoxic activity against human HeLa cells by MTT method; format: functional, cell-based
HEK293 = assay: Cytotoxic activity against human HEK293 cells by SRB method; format: cell-based
[2] = Cytotoxic activity against human HCT116 cells by SRB method; format: functional, cell-based; conditions: HCT-116
A549 = assay: Cytotoxic activity against human A549 cells by SRB method

Structure (SMILES)	IC50 [1] [µM]	IC50 (HeLa) [µM]	IC50 (HEK293) [µM]	IC50 [2] [µM]	IC50 (A549) [µM]
CO[C@]12CCCC[C@H]1[C@H]1O[C@H](C)[C@@H](C)c3c(O)c(O)cc(c31)O2	10.5	4.6	6.7	5.6	7.6
CO[C@@]1(C)C[C@H]2O[C@H](C)[C@@H](C)c3c(C)c(O)cc(c32)O1	> 50	35.5	42.5	> 50	> 50
Cc1c(O)c(O)c(Oc2cc(O)c(C)c3c2C(=O)O[C@H](C)[C@H]3C)c2c1[C@H](C)[C@@H](C)O2	7	3.4	6.4	3.5	9.6
COC(=O)c1ccc2c(=O)c3cc(O)cc(C(=O)O)c3oc2c1O	30.6	10	28.5	19	16.9
COc1cccc2c1C(=O)c1c(O)c3c(c(O)c1C2=O)C[C@@](O)(C(=O)CO)C[C@@H]3O[C@H]1C[C@H](N)[C@H](O)[C@H](C)O1 [DOXORUBICIN]	–	0.5	0.04	0.2	–
CO[C@H]1CCc2oc(=O)c3c(O)cc(C)cc3c21	40.5	12.6	31.4	22.5	10.8
CO[C@]1(C)C[C@H]2O[C@H](C)[C@@H](C)c3c(C)c(O)cc(c32)O1	46.6	45	32.6	> 50	> 50
